Results reported in ChEMBL document CHEMBL1131022, “Synthesis and biological activity of a novel methylamine-bridged enkephalin analogue (MABE): a new route to cyclic peptides and peptidomimetics” (J Med Chem, 1998).

Experiments:
[1] = molecular target: Kappa-type opioid receptor (Homo sapiens, UniProt P41145); experiment: In vitro potency was measured against human Opioid receptor kappa 1
[2] = tested on: Rattus norvegicus; experiment: In vivo efficacy was measured using thermal escape assay; format: functional
[3] = molecular target: Mu-type opioid receptor (Homo sapiens, UniProt P35372); experiment: In vitro potency was measured against human Opioid receptor mu 1
Chain of Mu-type opioid receptor (P35372 whole entry): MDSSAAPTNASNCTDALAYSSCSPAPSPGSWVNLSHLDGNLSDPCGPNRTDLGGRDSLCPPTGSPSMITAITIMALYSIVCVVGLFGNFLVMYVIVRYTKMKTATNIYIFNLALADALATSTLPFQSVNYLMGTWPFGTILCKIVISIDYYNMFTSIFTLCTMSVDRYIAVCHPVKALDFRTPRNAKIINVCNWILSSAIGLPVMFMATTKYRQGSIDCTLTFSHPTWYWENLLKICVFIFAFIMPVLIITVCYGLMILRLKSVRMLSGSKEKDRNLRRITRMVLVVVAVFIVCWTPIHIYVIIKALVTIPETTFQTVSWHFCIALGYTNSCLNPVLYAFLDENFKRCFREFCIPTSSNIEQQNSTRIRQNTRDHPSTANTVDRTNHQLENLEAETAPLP

[4] = molecular target: Delta-type opioid receptor (Homo sapiens, UniProt P41143); experiment: In vitro potency was measured against human Opioid receptor delta 1
Chain of Delta-type opioid receptor (P41143 whole entry): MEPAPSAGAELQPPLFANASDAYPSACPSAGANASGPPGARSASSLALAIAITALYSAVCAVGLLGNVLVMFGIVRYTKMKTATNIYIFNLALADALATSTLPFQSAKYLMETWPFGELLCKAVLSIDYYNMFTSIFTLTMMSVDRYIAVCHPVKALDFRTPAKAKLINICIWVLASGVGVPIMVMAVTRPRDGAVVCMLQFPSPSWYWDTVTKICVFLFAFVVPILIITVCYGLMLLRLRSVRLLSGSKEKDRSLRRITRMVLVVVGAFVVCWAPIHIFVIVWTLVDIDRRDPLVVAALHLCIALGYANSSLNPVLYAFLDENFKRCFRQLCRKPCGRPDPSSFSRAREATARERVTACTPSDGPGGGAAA

Chain of Kappa-type opioid receptor (P41145 whole entry): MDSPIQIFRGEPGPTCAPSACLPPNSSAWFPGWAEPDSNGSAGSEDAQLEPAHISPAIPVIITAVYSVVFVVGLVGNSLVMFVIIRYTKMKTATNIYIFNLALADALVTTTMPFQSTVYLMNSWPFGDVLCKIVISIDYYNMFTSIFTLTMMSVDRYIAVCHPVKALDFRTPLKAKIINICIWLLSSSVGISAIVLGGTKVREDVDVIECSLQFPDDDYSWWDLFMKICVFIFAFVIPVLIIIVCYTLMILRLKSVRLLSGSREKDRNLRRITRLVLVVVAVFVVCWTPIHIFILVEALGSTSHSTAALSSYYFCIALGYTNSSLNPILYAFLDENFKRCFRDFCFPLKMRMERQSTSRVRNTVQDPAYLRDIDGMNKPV

| SMILES | Ki [1] | ED50 [2] | Ki [3] | Ki [4] |
| --- | --- | --- | --- | --- |
| CN1CCNC(=O)[C@H](Cc2ccccc2)NC(=O)CNC(=O)[C@H](NC(=O)[C@@H](N)Cc2ccc(O)cc2)C1 | 340 nM | 0.027 µg | 1.6 nM | 2.1 nM |
| CC1(C)SSC(C)(C)C(NC(=O)[C@@H](N)Cc2ccc(O)cc2)C(=O)NCC(=O)N[C@@H](Cc2ccccc2)C(=O)NC1C(=O)O (single isomer, unassigned) |  | 54 µg |  |  |
| C[C@@H](NC(=O)[C@@H](N)Cc1ccc(O)cc1)C(=O)NCC(=O)N(C)[C@@H](Cc1ccccc1)C(=O)NCCO [DAMGO] |  | 0.14 µg |  |  |
| CN1CC[C@]23c4c5ccc(O)c4O[C@H]2[C@@H](O)C=C[C@H]3[C@H]1C5 [MORPHINE] |  | 2.4 µg |  |  |
